15 molecules from patent US5593982A, “Cyclopentanperhydrophenanthren-17β-(3-furyl)-3-derivatives and pharmaceutical compositions comprising same for the treatment of cardiovascular disorders” (Sigma-Tau Industrie Farmaceutiche Riunite S.p.A., priority 1992, dated 1997) can be followed below.

Experiment [1] concerns the target T1, Na^+,K^+ -ATPase receptor (Canis lupus familiaris, UniProt P50997).
T1 construct: from tissue; mammalian kidney outer medulla by the cited Jorgensen 1974 method (own knowledge)
Description: displacement of the specific 3H-ouabain binding from the purified Na+,K+-ATPase receptor. The text has this:
(§1) To test the affinity for the receptor site of the Na^+,K^+ -ATPase and the agonist or antagonist activity on the enzyme, the following tests were used: a) displacement of the specific ^3 H-ouabain binding from the Na^+,K^+ -ATPase receptor purified according to Jorghensen (Jorghensen P., BBA, 1974, 356, 36) and Erdmann (Erdmann E. et al., Arzneim. Forsh., 1984, 34, 1314); b) inhibition of the activity of the purified Na^+,K^+ -ATPase measured as % of hydrolysis of ^32 P-ATP in presence and in absence of the tested compound (Mall F. et al., Biochem. Pharmacol., 1984, 33, 47).

A further experiment concerns hypertensive MHS rats. Description: systolic blood pressure and heart rate in hypertensive MHS rats (indirect tail-cuff method). The class given is in vivo, rat (MHS). As to conditions: 20 mg/Kg/os daily for ten days in METHOCEL 0.5% w/v, 7 rats; for SBP (systolic blood pressure): controls 171 ± 4.5; for HR (heart rate): controls 384 ± 11.0. Here is the method: The ability of these compounds to lower blood pressure in adult hypertensive MHS rats was tested by the following method: systolic blood pressure (SBP) and heart rate (HR) were measured by an indirect tail-cuff method in three-month old hypertensive MHS rats before beginning treatment (basal values). The rats were then subdivided in two groups of 7 animals each, one receiving the compound and the other, the control group, receiving only the vehicle. The compound, suspended in METHOCEL® 0.5% (w/v), for ten days, was administered daily by mouth. SBP and HR were measured daily 6 and 24 hours after the treatment. When ten-day treatment washout had been under way for at least two days, whether the treatment maintains SBP low or re-establish the basal values was verified. The affinity and the inhibitory activity of some ethers and of the reference compound (II-a) in the two tests are shown in the following table: […]

Experiment [2] addresses T2, purified Na^+,K^+ -ATPase (Canis lupus familiaris, UniProt P50997).
T2 construct: from tissue; mammalian kidney outer medulla by the cited Jorgensen 1974 method (own knowledge)
Kind of experiment: inhibition of the activity of the purified Na+,K+-ATPase measured as % of hydrolysis of 32P-ATP. The format is biochemical.
Excerpt: as §1

Setting [3] is: hydrolysis of 32P-ATP, purified Na+,K+-ATPase, read-out: Inhibitory Activity log IC50 (converted).
Setting [4] is: displacement of specific 3H-ouabain binding, purified Na+,K+-ATPase, read-out: Binding 3H-Ouab. Displacement log IC50 (converted).

The structures appear in SMILES notation. Structures can show the parent of a compound that is named as a salt. Where two headings read alike, the source gives them in different places.

What is called IC50 is the concentration that inhibits the measured activity by half. Regarding `C[C@]12CC[C@H](OCCCN)C[C@H]1CC[C@@H]1[C@@H]2CC[C@]2(C)[C@@H](c3ccoc3)CC[C@]12O` [Comp. I-ab, 3β-(3-Aminopropoxy)-17β-(3-furyl)-5β-androstan-14β-ol], the IC50 was 126 nM in experiment [1] and 1260 nM in experiment [2] (setting [3]). The “SBP (systolic blood pressure)” value in the experiment with hypertensive MHS rats turned out to be 157 ± 4.9 mm Hg. Moreover, the “HR (heart rate)” value with hypertensive MHS rats was determined as 371 ± 10.0 beats/min.
For `C[C@]12CC[C@H](OCCCN3CCCC3)C[C@H]1CC[C@@H]1[C@@H]2CC[C@]2(C)[C@@H](c3ccoc3)CC[C@]12O` [Comp. I-ae], the IC50 in experiment [1] was 126 nM. In addition, in the experiment on hypertensive MHS rats, the “SBP (systolic blood pressure)” value is given as 154 ± 6.3 mm Hg and the “HR (heart rate)” value is 395 ± 8.7 beats/min. Also, the IC50 in experiment [2] is 794 nM.
With `C[C@]12CC[C@H](OCCNCCN3CCCC3)C[C@H]1CC[C@@H]1[C@@H]2CC[C@]2(C)[C@@H](c3ccoc3)CC[C@]12O` [Comp. I-ag, 3β-(2-(2-(1-Pyrrolidinyl)ethylamino)ethoxy)-17β-(3-furyl)-5β-androstan-14β-ol], the figures for the IC50 in experiment [1] and in experiment [2] were 158 nM and 1580 nM, respectively. Further, the “SBP (systolic blood pressure)” value in the experiment on hypertensive MHS rats came to 162 ± 5.0 mm Hg. Besides, the “HR (heart rate)” value with hypertensive MHS rats is reported as 377 ± 9.0 beats/min.
In the same order, the values of `C[C@]12CC[C@H](OCCSCCN3CCCC3)C[C@H]1CC[C@@H]1[C@@H]2CC[C@]2(C)[C@@H](c3ccoc3)CC[C@]12O` [Comp. I-ai, 3β-(2-(2-(1-Pyrrolidinyl)ethylthio)ethoxy)-17β-(3-furyl)-5β-androstan-14β-ol] are 200 nM, 631 nM, 160 ± 4.7 mm Hg and 390 ± 8.9 beats/min.
Turning to `C[C@]12CC[C@H](OCCNC(=N)N)C[C@H]1CC[C@@H]1[C@@H]2CC[C@]2(C)[C@@H](c3ccoc3)CC[C@]12O` [Comp. I-al, 3β-(2-Guanidinoethoxy)-17β-(3-furyl)-5β-androstan-14β-ol nitrate], the IC50 in experiment [1] was 126 nM. Also, in the experiment on hypertensive MHS rats, the “SBP (systolic blood pressure)” value was found to be 159 ± 5.0 mm Hg and the “HR (heart rate)” value worked out at 393 ± 9.0 beats/min. Moreover, the IC50 in experiment [2] was 1580 nM.
`C[C@]12CC[C@H](SCCN)C[C@H]1CC[C@@H]1[C@@H]2CC[C@]2(C)[C@@H](c3ccoc3)CC[C@]12O` [Comp. I-bv, 3β-(2-Aminoethylthio)-17β-(3-furyl)-5β-androstan-14β-oloxalate]: the IC50 in experiment [1] (setting [4]) is 501 nM. Also, in the experiment on hypertensive MHS rats, the “SBP (systolic blood pressure)” value amounted to 161 ± 4.2 mm Hg and the “HR (heart rate)” value is on record as 384 ± 6.7 beats/min. In addition, in experiment [2], the IC50 was 2000 nM.
For `C[C@]12CC[C@H](SCCN3CCCC3)C[C@H]1CC[C@@H]1[C@@H]2CC[C@]2(C)[C@@H](c3ccoc3)CC[C@]12O` [Comp. I-bw, 3β-(2-(1-Pyrrolidinyl)ethylthio)-17β-(3-furyl)-5β-androstan-14β-ol], the IC50 was 794 nM in experiment [1] (setting [4]) and 3980 nM in experiment [2] (setting [3]). In addition, in the experiment with hypertensive MHS rats, the “SBP (systolic blood pressure)” value is recorded as 157 ± 4.3 mm Hg. Moreover, the “HR (heart rate)” value in the experiment on hypertensive MHS rats was determined as 392 ± 10.0 beats/min.
For the molecule `C[C@]12CC[C@H](SCCOCCN3CCCC3)C[C@H]1CC[C@@H]1[C@@H]2CC[C@]2(C)[C@@H](c3ccoc3)CC[C@]12O` [Comp. I-by, 3β-(2-(2-(1-Pyrrolidinyl)ethoxy)ethylthio)-17β-(3-furyl)-5β-androstan-14β-ol], the figures for the IC50 in experiment [1] and in experiment [2] were 158 nM and 1000 nM, respectively. Further, the “SBP (systolic blood pressure)” value in the experiment with hypertensive MHS rats is recorded as 154 ± 6.3 mm Hg. Also, the “HR (heart rate)” value with hypertensive MHS rats is listed as 395 ± 8.7 beats/min.
With `C[C@]12CC[C@H](SCCCN)C[C@H]1CC[C@@H]1[C@@H]2CC[C@]2(C)[C@@H](c3ccoc3)C[C@H]3O[C@]132` [Comp. I-cj, 3β-(3-Aminopropylthio)-14β,15β-epoxy-17β-(3-furyl)-5β-androstane oxalate], the values for the IC50 in experiment [1] and in experiment [2] were 2000 nM and 6310 nM, respectively.
With `C[C@]12CC[C@H](OCCOCCCN)C[C@H]1CC[C@@H]1[C@@H]2CC[C@]2(C)[C@@H](c3ccoc3)CC[C@]12O` [Comp. I-cx, 3β-(2-(3-Aminopropoxy)ethoxy)-17β-(3-furyl)-5β-androstan, 14β-ol], the IC50 in experiment [1] was 200 nM; in experiment [2], 1580 nM.
As to `C[C@]12CC[C@H](OCCOCC(O)CN)C[C@H]1CC[C@@H]1[C@@H]2CC[C@]2(C)[C@@H](c3ccoc3)CC[C@]12O` (stereo partly drawn) [Comp. I-cy, 3β-(2-(3-Amino-2-hydroxypropoxy)ethoxy)-17β-(3-furyl)-5β-androstan-14β-ol], the IC50 in experiment [1] is 398 nM; in experiment [2], 1580 nM.
Taken in the same sequence, the figures for `C[C@]12CC[C@H](OCCOCC(N)CN)C[C@H]1CC[C@@H]1[C@@H]2CC[C@]2(C)[C@@H](c3ccoc3)CC[C@]12O` (stereo partly drawn) [Comp. I-cz, 3β-(2-(2,3-Diaminopropoxy)ethoxy)-17β-(3-furyl)-5β-androstan-14β-ol] were 398 nM and 2000 nM.
Taken in the same sequence, the figures for `C[C@]12CC[C@H](OCCOCCCN3CCCC3)C[C@H]1CC[C@@H]1[C@@H]2CC[C@]2(C)[C@@H](c3ccoc3)CC[C@]12O` [Comp. I-da, 3β-(2-(3-(1-Pyrrolidinyl)propoxy)ethoxy)-17β-(3-furyl)-5β-androstan-14β-ol] were 316 nM and 1580 nM.
Turning to `C[C@]12CC[C@H](OCCNCCCN3CCCC3)C[C@H]1CC[C@@H]1[C@@H]2CC[C@]2(C)[C@@H](c3ccoc3)CC[C@]12O` [Comp. I-db, 3β-(2-(3-(1-Pyrrolidinyl)propylamino)ethoxy)-17β-(3-furyl)-5β-androstan-14β-ol], the IC50 in experiment [1] was 200 nM; in experiment [2], 1580 nM.
Take `C[C@]12CC[C@H](O)C[C@H]1CC[C@@H]1[C@@H]2CC[C@]2(C)[C@@H](c3ccoc3)CC[C@]12O` [Comp. II-a, 17β-(3-furyl)-5β-androstane-3β,14β-diol, reference compound]: in the experiment with hypertensive MHS rats, the “SBP (systolic blood pressure)” value is 175 ± 4.1 mm Hg and the “HR (heart rate)” value came to 382 ± 9.0 beats/min.
